EC50 data for 61 molecules are collected here from ChEMBL document CHEMBL4739717, “Methods of treating cartilage disorders through inhibition of clk and dyrk” (2020).

Assay [1] is described as follows: Effect on Wnt signaling pathway in human SW480 cells harbouring TCF/LEF luciferase reporter gene and SP5-Luc reporter gene incubated for 36 to 48 hrs by luminescence assay. The format is cell-based.
A short description of assay [2]: Inhibition of IL1-beta induced MMP3 expression levels in human chondrocytes assessed as MMP3 levels incubated for 2hrs followed by IL1-beta stimulation and measured after overnight incubation by LANCE assay. The format is functional, cell-based. The following applies: Chondrocyte. A general note: TR-FRET usually uses a lanthanide donor and a delayed reading to cut background.

Assay [3] has as its target Dual specificity tyrosine-phosphorylation-regulated kinase 1A (Homo sapiens, UniProt Q13627). Put plainly: Inhibition of recombinant DYRK1A (unknown origin) using Ser/Thr 18 peptide as substrate incubated for 1 hr in presence of ATP by FRET assay.

For the molecule `NC(=O)c1n[nH]c2ccc(-c3cncc(CN4CCCCC4)c3)cc12`, the EC50 in assay [1] was 1960 nM; in assay [2] it was 2.3 nM.
As to `CC(C)n1cc(C(=O)Nc2cc3cc(-c4cncc(NC5CCN(C)CC5)n4)ncc3cn2)cn1`, the EC50 was determined as 1 nM in assay [3], 164 nM in assay [1] and 3000 nM in assay [2].
In the same order, the values of `O=C(Nc1ccc(N2CCNCC2)nc1)c1n[nH]cc1/C=C/c1cccnc1` are 1 nM, 1650 nM and 0.2 nM.
Taken in the same sequence, the figures for `Fc1cccc(-c2cncc3[nH]c(-c4n[nH]c5cnc(-c6cncc(OC7CCNCC7)c6)cc45)nc23)c1` were 5 nM, > 10000 nM and 1710 nM.
In the same order, the values of `O=C(Nc1ccc(CN2CCCC2)cc1)c1n[nH]c2ccc(-c3cccnc3F)cc12` are 1 nM, 196 nM and 3000 nM.
As for `Cc1n[nH]c2ccc(-c3cncc(N4CC(C)(N)C4)n3)cc12`, the EC50 stood at 63 nM in assay [3], 3510 nM in assay [1] and 1610 nM in assay [2].
Turning to `CC(C)OC(=O)N1CCC(n2cc(C(=O)Nc3cc4cc(-c5cnn(C)c5)ncc4cn3)cn2)CC1`, the results for the EC50 in assay [1] and in assay [2] were 824 nM and 154 nM, respectively.
In the same order, the values of `O=C(Nc1cc2cc(-c3cncc(NCC4(F)CNC4)n3)ccc2cn1)C1CC1` are 119 nM and 897 nM.
Turning to `O=C(CC1CCNCC1)Nc1cncc(-c2ccc3[nH]nc(-c4nc5c(-c6ccsc6)nccc5[nH]4)c3n2)c1`, the EC50 in assay [3] was 10 nM; in assay [1] it was > 10000 nM; in assay [2] it was 3000 nM.
Taken in the same sequence, the figures for `CC(C)NC(=O)c1n[nH]c2ccc(-c3cncc(NC4CCNCC4)n3)cc12` were 1 nM, 2400 nM and 2740 nM.
In the same order, the values of `O=C(Nc1ccc(N2CCCC2)nc1)c1n[nH]c2ccc(-c3cncc(CN4CCC4)c3)cc12` are 3 nM, > 10000 nM and 3000 nM.
In the same order, the values of `O=C(Nc1ccc(N2CC(CO)(CO)C2)nc1)c1n[nH]c2ccc(-c3cncc(CN4CCCCC4)c3)cc12` are 2 nM, 1500 nM and 6.7 nM.
`Cc1[nH]nc(C(=O)Nc2ccc(OC3CCN(C)CC3)nc2)c1/C=C/c1cccnc1`: the figures for the EC50 in assay [3], in assay [1] and in assay [2] were 20 nM, > 10000 nM and 17.8 nM, respectively.
Taken in the same sequence, the figures for `Cc1n[nH]c2ccc(-c3cncc(OCC4(F)CNC4)n3)cc12` were 25 nM, 3250 nM and 35 nM.
For `CN1CCC(Oc2ncc(NC(=O)c3n[nH]c4cc(F)c(-c5cnn(C)c5)cc34)cc2F)CC1`, the EC50 in assay [3] was determined as 1 nM; in assay [1], 1150 nM; in assay [2], 12.6 nM.
In the same order, the values of `Cn1ncc(-c2ccc3cnc(NC(=O)[C@H]4CC[C@H](CO)CC4)cc3c2)c1CN1CCCCC1` are 3 nM, 594 nM and 3000 nM.
Turning to `CS(=O)(=O)c1ccc(NC(=O)c2n[nH]c3ccc(-c4cncc(CN5CCCCC5)c4)cc23)cn1`, the results for the EC50 in assay [3], in assay [1] and in assay [2] were 1 nM, 27 nM and 5.5 nM, respectively.
`Cc1n[nH]c2ccc(-c3cncc(OC[C@@H](N)Cc4ccccc4)c3)cc12`: the EC50 was 262 nM in assay [1] and 3000 nM in assay [2].
For the molecule `COc1cncc(C(=O)Nc2c[nH]nc2C(=O)Nc2ccc(CN(C)C)cc2)c1`, the results for the EC50 in assay [3], in assay [1] and in assay [2] were 10 nM, 123 nM and 3000 nM, respectively.
In the same order, the values of `CC(C)n1cc(C(=O)Nc2cc3cc(-c4cncn4C)ccc3cn2)cn1` are 2 nM, 34.8 nM and 1430 nM.
For the molecule `Cc1nnc(C(=O)Nc2cc3cc(-c4cncn4C)ccc3cn2)s1`, the EC50 in assay [1] stood at 1890 nM; in assay [2] it was 71.5 nM.
Take `CC(C)CC(=O)Nc1cncc(-c2cnc3[nH]nc(-c4nc5c(-c6cccc(F)c6)cncc5[nH]4)c3c2)c1`: the EC50 amounted to 2 nM in assay [3], 0.6 nM in assay [1] and 3000 nM in assay [2].
Taken in the same sequence, the figures for `Cc1n[nH]c2ccc(-c3cncc(N4CCC[C@H](N)C4)n3)cc12` were 50 nM, 1430 nM and 3000 nM.
Taken in the same sequence, the figures for `CN1CCC(Oc2ccc(NC(=O)c3n[nH]cc3/C=C/c3cccnc3)cn2)CC1` were 1 nM, 964 nM and 3000 nM.
Taken in the same sequence, the figures for `O=C(Nc1cccnc1)c1n[nH]c2cnc(-c3cncc(CN4CCCCC4)c3)cc12` were 4 nM, 848 nM and 138 nM.
Regarding `O=C(Nc1ccc(CN2CCCC2)cc1)c1n[nH]c2ccc(-c3cnccn3)cc12`, the 50% effective concentration (EC50) in assay [3] was 4 nM; in assay [1], 1660 nM; in assay [2] it was 7.1 nM.
`CN1CCN(c2cc(C(=O)Nc3cc4cc(-c5ccc(N)nc5)ccc4cn3)ccn2)CC1`: the EC50 came to 710 nM in assay [1] and 798 nM in assay [2].
Taken in the same sequence, the figures for `CN1CC=C(c2cc(C(=O)Nc3cc4cc(-c5cncc(NC(C)(C)C)n5)cnc4cn3)ccn2)CC1` were 357 nM and 3000 nM.
Consider `O=C(Nc1cnccn1)c1n[nH]c2ccc(-c3cncc(CN4CCCCCC4)c3)cc12`, for which the EC50 in assay [3] came out at 2 nM; in assay [1], 430 nM; in assay [2], 3000 nM.
Taken in the same sequence, the figures for `CCC1(N)CN(c2cncc(-c3ccc4[nH]nc(C)c4c3)n2)C1` were 54 nM, 1730 nM and 3000 nM.
Taken in the same sequence, the figures for `O=C(Nc1ccc(OC(F)F)cc1)c1n[nH]c2ccc(-c3cnc4n3CCNC4)cc12` were 16 nM, 684 nM and 13 nM.
With `CN1CCC2(CC1)CN(c1cc(C(=O)Nc3cc4cc(-c5cnn(C)c5CN5CCCCC5)cnc4cn3)ccn1)C2`, the results for the EC50 in assay [1] and in assay [2] were 607 nM and 3000 nM, respectively.
Consider `CN1CCC2(CC1)CN(c1cc(C(=O)Nc3cc4cc(-c5cnn(C)c5CO)ccc4cn3)ccn1)C2`, for which the EC50 in assay [2] is 3000 nM.
Still for that read-out and setting: the same measure for `CN(C)C1CCN(c2cc(C(=O)Nc3cc4cc(-c5cnn(C)c5)ccc4cn3)ccn2)CC1`: 697 nM.
On to `Cc1ncc(C(=O)Nc2cc3nc(-c4cnc(C)n4C)ccc3cn2)s1`, for which the EC50 was 107 nM in assay [1] and 8.7 nM in assay [2].
Consider `Cn1ncc(-c2ccc3cnc(NC(=O)c4ccc(OC(F)F)cc4)cc3c2)c1CO`, for which, in assay [2], the EC50 came to 1370 nM.
Turning to `CC(C)Nc1cncc(-c2ccc3cnc(NC(=O)c4cccc(C5CCN(C)CC5)c4)cc3c2)n1`, the half-maximal effective concentration (EC50) in assay [1] turned out to be 132 nM; in assay [2], 3000 nM.
In the same order, the values of `Cc1n[nH]c2ccc(-c3cncc(OCCN)c3)cc12` are 1640 nM and 3000 nM.
For `CN1CCC(n2cc(C(=O)Nc3ncc4ccc(-c5cncc6[nH]ccc56)cc4n3)cn2)CC1`, the figures for the EC50 in assay [1] and in assay [2] were 1400 nM and 3000 nM, respectively.
`O=C(Nc1ccc(CN2CCCC2)cc1)c1n[nH]c2ccc(-c3cncnc3)cc12`: the EC50 was determined as 1310 nM in assay [1] and 307 nM in assay [2].
Turning to `CN1CCN(c2cc(C(=O)Nc3ncc4ccc(-c5cnn(C)c5)cc4n3)ccn2)CC1`, the EC50 in assay [1] was found to be 468 nM; in assay [2], 417 nM.
`Cn1cc(-c2ccc3cnc(NC(=O)c4ccc5nccnc5c4)cc3n2)cn1`: the EC50 in assay [1] came out at 447 nM; in assay [2], 3000 nM.
Take `CN1CCN(c2ccc(C(=O)Nc3cc4cc(-c5cnn(C)c5)ccc4cn3)cn2)CC1`: the EC50 in assay [2] turned out to be 9.5 nM.
Same read-out and setting: for `Cc1ncc(-c2ccc3cnc(NC(=O)c4ccc(OC(C)C)cc4)cc3c2)n1C` the value was 10.5 nM.
In the case of `CN1CCC2(CC1)CN(c1cc(C(=O)Nc3cc4cc(-c5cnn(C)c5)ccc4cn3)ccn1)C2`, the EC50 in assay [2] was found to be 3000 nM.
Still for that read-out and setting: the same measure for `CN1CCN(c2cc(C(=O)Nc3cc4cc(-c5cnc(N)s5)ccc4cn3)ccn2)CC1`: 0.4 nM.
On to `CN1CCC(n2cc(C(=O)Nc3cc4cc(-c5cnc6cc[nH]c6c5)ccc4cn3)cn2)CC1`, for which the EC50 in assay [1] was found to be 26.8 nM; in assay [2], 3000 nM.
For the molecule `CN1CCc2cc(C(=O)Nc3cc4cc(-c5cn(C)nn5)ccc4cn3)ccc2C1`, in assay [2], the EC50 stood at 3000 nM.
The same measure, in the same setting: the same measure for `O=C(Nc1cc2cc(-c3cncs3)ccc2cn1)c1ccc2c(c1)CNCC2`: 3000 nM.
On to `CC(C)n1cc(C(=O)Nc2cc3cc(-c4cncn4C(C)C)ccc3cn2)cn1`, for which the results for the EC50 in assay [1] and in assay [2] were 115 nM and 4.6 nM, respectively.
Taken in the same sequence, the figures for `CN1CCN(c2cc(C(=O)Nc3cc4nc(-c5cnn(C)c5)ccc4cn3)ccn2)CC1` were 102 nM and 3000 nM.
As to `NC1CN(c2cc(C(=O)Nc3cc4cc(-c5cnco5)ccc4cn3)ccn2)C1`, in assay [2], the EC50 worked out at 3000 nM.
Still for that read-out and setting: the same measure for `CN(C)CCNc1cc(C(=O)Nc2cc3cc(-c4cnn(C)c4)ccc3cn2)ccn1`: 306 nM; for `CN1Cc2ccc(C(=O)Nc3cc4cc(-c5cncn5C)ccc4cn3)cc2C1`: 3000 nM; for `CN1CCN(c2cc(C(=O)Nc3cc4cc(-c5cnn(C6CC6)c5)ccc4cn3)ccn2)CC1`: 12.2 nM.
Same read-out and setting: for `CN1CCN(c2cc(C(=O)Nc3cc4cc(-c5cnn(C)c5)c(F)cc4cn3)ccn2)CC1` the value was 0.4 nM.
Still for that read-out and setting: the same measure for `CN1CCN(c2ccc(C(=O)Nc3cc4cc(-c5cnn6c5CN(CCF)CC6)ccc4cn3)cn2)CC1`: 3000 nM.
As for `O=C(Nc1cc2cc(-c3cncc(NC4CCNCC4)n3)ncc2cn1)C1CCOCC1`, the EC50 is 3640 nM in assay [1] and 46.6 nM in assay [2].
Taken in the same sequence, the figures for `O=C(Nc1cc2cc(-c3cncc(NC4CCNCC4)n3)ccc2cn1)C1CCCCC1` were 319 nM and 3000 nM.
Taken in the same sequence, the figures for `O=C(NCc1cc(F)cc(F)c1)c1n[nH]c2ccc(-c3cncc(CN4CCCCC4)c3)cc12` were 1820 nM and 3000 nM.
Taken in the same sequence, the figures for `CC(C)OC(=O)N1CCC(n2cc(C(=O)Nc3cc4cc(-c5cnn(C)c5)ccc4cn3)cn2)CC1` were 54.5 nM and 88.1 nM.

A word on the EC50: it is the concentration giving half of the maximal effect.
